Laboratory results as given in US7135472B2, “3-Heterocyclic benzylamide derivatives as potassium channel openers” (Bristol-Myers Squibb Company, priority 2002, dated 2006).

Legend:
[1] = system: peripheral mononeuropathy nerve injury-induced tactile allodynia; assay: Chung model of neuropathic pain (Chung surgery and von Frey test); format: in vivo, male Sprague Dawley rats; conditions: i.v., rat, von Frey thresholds over 90 min post-drug, % MPE (Drug AUC) − % MPE (Vehicle AUC)
Experimental: To test agents for activity against peripheral mononeuropathy nerve injury-induced tactile allodynia, male Sprague Dawley rats (wt. 120–160 g) were surgically prepared with unilateral tight ligation of spinal nerves L5 and L6 following the method of Kim and Chung (Kim S. H., Chung J. M. (1992) Pain, September; 50(3):355–63). After 3–4 weeks recovery, paw withdrawal to light touch was assessed as described by Chaplan et al. (Chaplan S. R., et al., (1994) J. Neurosci Methods, July; 53(1):55–63). In brief, rats are placed in a plastic cage with a wire mesh bottom and allowed to acclimate for 15–30 minutes, until cage exploration and grooming stops. […] After acclimation, baseline von Frey thresholds were assessed for the injured hindpaw at −15 min. […] Following drug administration, von Frey thresholds are measured at 15, 30, 60 and 90 min. Data were analyzed by a 2-way repeated measures analysis of variance followed by Dunnett's test (p<0.05). […]
Reversal of neuropathic pain behavior may be expressed as a percentage (0–100%) of the maximum possible effect, over and above the vehicle effects. […]
For example, a compound which immediately reversed neuropathic pain behavior to normal levels, such that animals only responded to the highest von Frey filament (15 g), and maintained normal levels through out the post-drug testing period (90 min) would be calculated as Δ%MPE=100%.

mKCNQ2 channels = target: T1, mKCNQ2 channels (Mus musculus, UniProt Q9Z351); assay: KCNQ whole-cell patch-clamp recordings, HEK 293 stable cell line expressing mKCNQ2 channels; format: cell-based; conditions: mKCNQ2 currents, HEK 293, whole-cell patch clamp; for Imax (%): Hill fit maximum current; for EC50: at −40 mV
T1 construct: expressed in transfected cells
Experimental: Whole-cell patch-clamp recordings were made from an HEK 293 stable cell line expressing mKCNQ2 channels, maintained in culture for 1–2 days. Patch pipettes had initial resistances of 2.5–4 MΩ. Currents were recorded with an EPC-9 amplifier (HEKA, Lambrecht, Germany) controlled with software (Pulse, HEKA) run on a standard lab PC. Series resistance compensation was used during current recording, and set at 80%. The series resistance (R) and cell capacitance (C) were determined electronically by subtracting the capacitive currents at the onset and offset of a 5 mV voltage step. The cancellation of whole-cell capacitive transients was virtually complete in all cells. Analog current signals were low-pass filtered at 2.9 kHz using a four-pole Bessel filter −3 dB) and stored on a local network server computer at a sampling rate of […]. All recordings were performed at room temperature (20–22° C.). The pipette solution contained (mM): KCl, 150; CaCl2, 2.5; EGTA, 5; MgCl2, 1; HEPES, 10; pH to 7.3 with KOH, and Osmolality of 290–300 mOsm. The extracellular solution contained (mM): NaCl, 140; KCl, 2.5; CaCl2, 2.5; MgCl2, 1; glucose, 10; HEPES, 10; pH to 7.3 with NaOH, and Osmolality of 305–310 mOsm
Concentration response data were generated by measuring the difference in the steady-state amplitude of current in the presence of compound at the end of a 600 ms voltage-clamp step from a holding potential of −80 mV. The concentration-response data were fitted with Hill-type equations: I=Imax/(1+EC50/[A]^nH), where I is the steady-state current at a given concentration of agonist [A]; and Imax, EC50 and nH are parameters estimated from the curve fit. In some cases the concentration-response data were fitted with equations consisting of the sum of two Hill-type components. Current-voltage (I/V) relationships for agonist-evoked currents were obtained by performing 600 ms voltage steps (−110 mV to +40 mV) in the absence and presence of agonist.

| SMILES | AUC (Δ % MPE) ([1]; 100 mg/kg) | Imax (%) (mKCNQ2 channels) | EC50 (mKCNQ2 channels) [µM] | AUC (Δ % MPE) ([1]; 3 mg/kg) |
| --- | --- | --- | --- | --- |
| NCC1(CC(=O)O)CCCCC1 [Gabapentin, gabapentin, reference compound] | 50 (100 mg/kg, i.v.) Δ % MPE | – | – | – |
| C[C@H](NC(=O)/C=C/c1ccccc1F)c1cccc(-n2cccn2)c1 [Example 4, (S)-3-(2-Fluoro-phenyl)-N-[1-(3-pyrazol-1-yl-phenyl)-ethyl]-acrylamide] | – | 1158 | 0.123 | 24 (3 mg/kg, i.v.) Δ % MPE |
| C[C@H](NC(=O)CCCc1ccccc1)c1cccc(-c2cccnc2)c1 [Example 17, (S)-4-Phenyl-N-[1-(3-pyridin-3-yl-phenyl)-ethyl]-butyramide] | – | 172 | 0.0007 | – |
| C[C@H](NC(=O)C=Cc1ccccc1)c1cccc(-n2cccn2)c1 [Example 31, (S)-3-Phenyl-N-[1-(3-pyrazol-1-yl-phenyl)-ethyl]-acrylamide] | – | 3364 | 1.24 | – |
